Reference: article PMC6268361, “Development and Validation of a Bioanalytical Method for Quantification of 2,6-Bis-(4-hydroxy-3-methoxybenzylidene)-cyclohexanone (BHMC) in Rat Plasma” (Molecules, 2012)

Assays:
[1] = design: method as in PMID 19110321, PMID 14997198, PMID 17400527, PMID 17999464; settings: cited from earlier work
[2] = Pharmacokinetic study in rats after i.v. administration (HPLC-UV/VIS of plasma, non-compartmental analysis); format: in vivo, male Sprague Dawley rats; settings: i.v. 10 mg/kg
Description: Samples were analyzed with a Flexar HPLC system that consisted of a UV/VIS detector, a quaternary pump and a solvent manager with built-in degasser (PerkinElmer, Waltham, MA, USA). The separation was achieved using a Waters Symmetry C18 column (150 × 4.6 mm I.D.; 5 µm; Waters, Milford, MA, USA) protected by a Waters Symmetry C18 Guard Column (20 × 3.9 mm I.D.; 5 µm; Waters, Milford, MA, USA) at ambient temperature. The system’s pump delivered a constant flow of 1 mL/min. The volume of injection was 50 µL. BHMC and IS were eluted with a gradient method that gave an initial flow of 100% water for 1 min, changing linearly to 100% methanol in 11 min. Pure methanol was pumped continuously for 9 min. After this, 100% water was regained to stabilize the chromatographic system for 6 min. BHMC and IS were detected at a visible range of 380 nm. The analyses were repeated according to the gradient elution at every analytical cycle. The chromatograms were analyzed with Chromera Manager 2.1 (PerkinElmer, Waltham, MA, USA).
Plasma samples (200 µL) were pipetted into 1.5 mL microcentrifuge tubes. To each tube, deionized water (80 µL) was added and the tubes vortexed at medium speed for 20 s. Next, IS (62.5 µg/mL, 40 µL) was added and the mixtures vortexed again at medium speed for 20 s. A volume of 500 µL extraction reagent (95% ethyl acetate, 5% methanol) was loaded into each tube followed by a 60 s sonication and high speed vortexing for 60 s. The tubes were allowed to settle for 5 min followed by centrifugation at 13,500 g for 5 min at a temperature of 15 °C. After centrifugation the upper organic layer was carefully removed into another clean microcentrifuge tube. The organic layer was dried under a stream of nitrogen gas with a low heat setting. The dried extracted product was resuspended in 200 µL of a solution consisting of 10% methanol and 90% deionized water, sonicated for 60 s then vortexed at medium speed for 30 s. The tubes were left at room temperature in the dark for at least 10 min, followed by a repeat vortex mixing. The content was then filtered with 0.45 µm PTFE syringe filters (Titan, West Springfield, MA, USA) into a clean HPLC injection sample vial for HPLC assay.
Experiments was conducted on male Sprague Dawley rats (8–10 weeks old, 180–200 g) supplied by the Faculty of Veterinary Medicine, Universiti Putra Malaysia. All rats were housed at 23 ± 2 °C with 12 h of light/dark cycle with access to food and water ad libitum. They were acclimatized and habituated to the laboratory condition for at least one week prior to experimentation and were used only once throughout the experiments. All experimental protocols involving animals were performed in accordance with the current guidelines for the care of laboratory animals and the ethical guidelines for animal experimentation Animal Care and Use Committee (ACUC) as approved by the Animal Experimentation Ethics Committee of Universiti Putra Malaysia. Six rats were used. BHMC, solubilized in 5% ethanol (Thermo Fisher Scientific, Waltham, MA, USA), 5% Tween-20 (Sigma-Aldrich, St. Louis, MO, USA) and 90% deionized water, was injected intravenously to each rat at a dose of 10 mg/kg body weight. Blood samples (0.5 mL) were obtained from the tail vein at 5, 15, 30, 60, 120, 240, 480 and 720 min following BHMC administration. In order to prevent coagulation and enable plasma collection 1 µg of heparin sodium was added to each blood sample. Each sample was immediately centrifuged at 3,000 g for 10 min and the plasma was processed as described under sample preparation section. Pharmacokinetic parameters were estimated using non-compartmental pharmacokinetic analysis.

[3] = test system: cellular synthesis of nitric oxide and several proinflammatory cytokines; design: method as in PMID 19958764, PMID 21114991; settings: through inhibition of signaling pathways incl. phosphorylation of p38 MAPK; cited from earlier work
lethal sepsis in mice = test system: lethal sepsis in mice; design: method as in PMID 21114991; settings: compared with curcumin; cited from earlier work
[4] = test system: mouse model of inflammatory pain; design: method as in PMID 12609665; settings: cited from earlier work
[5] = male, Sprague Dawley, rat, plasma, iv, n = 6, mean ± SD, non-compartmental analysis

Structure (SMILES) | Bioavailability via oral administration [1] | Time post-treatment up to which quantifiable in plasma of all rats ([2]; LOQ 0.02 µg/mL) | AUC(0-inf) [2, 5] | AUC(0-t) [2, 5] | clearance ([2]; male, Sprague Dawley, rat, plasma, iv, n = 6, mean ± SD, non-compartmental analysis, read-out: Cl (clearance)) | Cmax ([2]; male, Sprague Dawley, rat, plasma, iv, n = 6, mean ± SD, non-compartmental analysis, read-out: Cmax (maximum plasma concentration)) | half-life ([2]; male, Sprague Dawley, rat, plasma, iv, n = 6, mean ± SD, non-compartmental analysis, read-out: T1/2 (half-life)) | Vd ([2]; male, Sprague Dawley, rat, plasma, iv, n = 6, mean ± SD, non-compartmental analysis, read-out: Vd (volume of distribution)) | Effect on cellular synthesis of nitric oxide and several proinflammatory cytokines [3] | Reduction of mortality following severe sepsis (lethal sepsis in mice) | Analgesic effect [4]
COc1cc(C=CC(=O)CC(=O)C=Cc2ccc(O)c(OC)c2)ccc1O [Curcumin, 1,7-bis(4-hydroxy-3-methoxyphenyl)-1,6-heptadiene-3,5-dione] | low bioavailability |  |  |  |  |  |  |  |  |  | 
COc1cc(C=C2CCCC(=Cc3ccc(O)c(OC)c3)C2=O)ccc1O [BHMC, 2,6-bis-(4-hydroxy-3-methoxybenzylidene)-cyclohexanone] |  | at least 8 h | 989 ng·h/mL | 937 ng·h/mL | 5.3 ± 0.7 mL/min | 2910 ± 150 ng/mL | 1.5 ± 0.124 h | 0.69 ± 0.038 L | significant inhibitory effects | superior to curcumin in reducing mortality | potential analgesic effect
